The values below come from PubChem BioAssay (NCI).

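All cell lines were grown in 96-well plates and treated with compound for 48 hours. TGI: total growth inhibition.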

Test systems include SW-620 colon; SNB-75 CNS; NCI-H226 lung; RXF 393 renal; LOX IMVI melanoma; UACC-257 melanoma; MCF7 breast; A549 NSCLC; NCI-H23 lung; CCRF-CEM leukemia; SK-MEL-28 melanoma.
Holding throughout (test): NCI anticancer screen, dose series, 48 h

Consider `Cc1[nH]c2ncn(/N=C/c3ccccc3)c(=N)c2c1Cc1ccccc1`, for which the TGI in the assay with SW-620 colon, in the assay on SNB-75 CNS, with NCI-H226 lung, in the assay with RXF 393 renal, with LOX IMVI melanoma and in the assay on UACC-257 melanoma was more than 100 µM in each case. The TGI with MCF7 breast, with A549 NSCLC, in the assay on NCI-H23 lung, with CCRF-CEM leukemia and in the assay with SK-MEL-28 melanoma was more than 100 µM in each case.
In the case of `N#Cc1cnn2c1n[n+]([O-])c1ccc(Cl)cc12`, the TGI with SW-620 colon stood at 29.6 µM; in the assay with SNB-75 CNS it was 15.4 µM; with NCI-H226 lung it was 49.7 µM; in the assay on RXF 393 renal it was 42.4 µM; in the assay with LOX IMVI melanoma, 8.51 µM; in the assay on UACC-257 melanoma, 23 µM. Besides, the TGI in the assay on MCF7 breast was more than 100 µM; with A549 NSCLC, more than 79.8 µM; with NCI-H23 lung it was 12.2 µM; in the assay on CCRF-CEM leukemia, 4.34 µM; in the assay on SK-MEL-28 melanoma it was 27.7 µM.
Consider `CN(CCO)CC(=O)CC(O)(C(F)(F)F)C(F)(F)F`, for which the TGI in the assay on SW-620 colon is more than 100 µM; in the assay on SNB-75 CNS, 51.7 µM; with NCI-H226 lung it was more than 100 µM; with RXF 393 renal, 46.8 µM; with LOX IMVI melanoma it was 86.3 µM; in the assay on UACC-257 melanoma it was more than 100 µM. The TGI in the assay with MCF7 breast is more than 100 µM; with A549 NSCLC, more than 100 µM; with NCI-H23 lung, 60.2 µM; in the assay on CCRF-CEM leukemia, 91.9 µM; in the assay with SK-MEL-28 melanoma it was more than 100 µM.
With `COc1ccc(/C=C/C(=O)NCC(NC(=O)/C=C/c2ccc(OC)c(OC)c2)C(=O)O)cc1OC` (stereo not given), the TGI with SW-620 colon, with SNB-75 CNS, in the assay on NCI-H226 lung, in the assay on RXF 393 renal, in the assay with LOX IMVI melanoma and in the assay with UACC-257 melanoma was more than 100 µM in each case. The TGI in the assay with MCF7 breast, in the assay with A549 NSCLC, in the assay on NCI-H23 lung, with CCRF-CEM leukemia and in the assay with SK-MEL-28 melanoma was more than 100 µM throughout.
For the compound `C1CSCC2(COC2)CS1`, the TGI in the assay on SW-620 colon, in the assay with SNB-75 CNS, with NCI-H226 lung, in the assay with RXF 393 renal, with LOX IMVI melanoma and in the assay on UACC-257 melanoma was more than 100 µM each time. Further, the TGI with MCF7 breast, in the assay with A549 NSCLC, in the assay with NCI-H23 lung, in the assay on CCRF-CEM leukemia and with SK-MEL-28 melanoma was more than 100 µM in each case.
On to `CCCCCCN(C(=O)Oc1ccccc1)C(C#N)c1ccccc1` (stereo not given), for which the TGI in the assay on SW-620 colon, with SNB-75 CNS, with NCI-H226 lung, in the assay on RXF 393 renal, in the assay on LOX IMVI melanoma and in the assay with UACC-257 melanoma was more than 100 µM throughout. Also, the TGI in the assay on MCF7 breast, in the assay with A549 NSCLC, with NCI-H23 lung, in the assay with CCRF-CEM leukemia and with SK-MEL-28 melanoma was more than 100 µM each time.
In the case of `O=C(/C=C/c1ccc(O)c(O)c1)NC(CO)C(=O)O` (stereo not given), the TGI in the assay on SW-620 colon, in the assay with SNB-75 CNS, in the assay with NCI-H226 lung, in the assay on RXF 393 renal, in the assay on LOX IMVI melanoma and with UACC-257 melanoma was more than 100 µM each time. The TGI with MCF7 breast, with A549 NSCLC, in the assay with NCI-H23 lung, in the assay with CCRF-CEM leukemia and in the assay with SK-MEL-28 melanoma was more than 100 µM each time.
`NN/C(=N\S(=O)(=O)c1cc(Cl)c(Oc2ccc([N+](=O)[O-])cc2Cl)c(Cl)c1)Nc1ccc(Cl)cc1`: the TGI in the assay with SW-620 colon is more than 100 µM; with SNB-75 CNS, 56.3 µM; with NCI-H226 lung, 33.4 µM; with RXF 393 renal, 28.4 µM; with LOX IMVI melanoma, 45 µM; in the assay on UACC-257 melanoma, 34.6 µM. Further, the TGI with MCF7 breast came to 58.4 µM; with A549 NSCLC, 41.8 µM; in the assay with NCI-H23 lung, 31.4 µM; in the assay with CCRF-CEM leukemia, 37.5 µM; in the assay with SK-MEL-28 melanoma, 48.3 µM.
Take `Cc1ccc2c(c1)C(C1Cc3c(C)cccc3C1=O)OC2=O` (stereo not given): the TGI in the assay with SW-620 colon, with SNB-75 CNS, with NCI-H226 lung, in the assay on RXF 393 renal, in the assay with LOX IMVI melanoma and with UACC-257 melanoma was more than 100 µM each time. Besides, the TGI with MCF7 breast, in the assay with A549 NSCLC, in the assay with NCI-H23 lung, with CCRF-CEM leukemia and in the assay on SK-MEL-28 melanoma was more than 100 µM in each case.
Turning to `Cc1sc2ncnc(NCCc3ccccc3)c2c1C`, the TGI with SW-620 colon was more than 100 µM; in the assay on SNB-75 CNS it was 53.5 µM; with NCI-H226 lung, 42.3 µM; in the assay on RXF 393 renal it was 34.1 µM; in the assay on LOX IMVI melanoma it was 22.4 µM; in the assay on UACC-257 melanoma, 17.3 µM. For the same compound, the TGI in the assay on MCF7 breast was found to be 28.6 µM; in the assay on A549 NSCLC, 83 µM; in the assay with NCI-H23 lung, 36 µM; in the assay with CCRF-CEM leukemia, 49.3 µM; with SK-MEL-28 melanoma, 35 µM.
